Assay results as given in patent US20250127937A1, “FAP INHIBITOR” (UNIVERSITÄT HEIDELBERG, priority 2018, published 2025).

Target: human CD26 (Homo sapiens (Human), UniProt P27487)
Assay: Radioligand binding to CD26 expressing cells (HEK-CD26)
Conditions: 60 min incubation
Description: In vitro binding studies were performed using the human tumor cell lines BxPC3, Capan-2, MCF-7 (purchased from Sigma Aldrich Chemie GmbH) and SK-LMS-1 (purchased from ATCC) as well as stably transfected FAP-cell lines HT-1080-FAP, HEK-muFAP and the CD26 expressing cell line HEK-CD26 (obtained from Stefan Bauer, NCT Heidelberg). All cells were cultivated in Dulbecco's modified Eagle's medium (DMEM) containing 10% fetal calf serum at 37° C./5% carbon dioxide. For fluorescence internalization experiments, cells were seeded on coverslips and stained with FAPI-02-Atto488 and DAPI for cell nucleus staining. Images were acquired on a laser scanning confocal microscope using a 63× oil immersion objective.
For radioligand binding studies, cells were seeded in 6-well plates and cultivated for 48 h to a final confluence of approx. 80-90% (1.2-2 mio cells/well). The medium was replaced by 1 mL fresh medium without fetal calf serum. The radiolabeled compound was added to the cell culture and incubated for different time intervals ranging from 10 min to 24 h. Competition experiments were performed by simultaneous exposure to unlabeled (10^−5 M to 10^−9 M) and radiolabeled compound for 60 min. […] Radioactivity was determined in a γ-counter (Cobra II, Packard), normalized to 1 mio cells and calculated as percentage of the applied dose (% ID). […]

Chain of human CD26 (P27487 whole entry): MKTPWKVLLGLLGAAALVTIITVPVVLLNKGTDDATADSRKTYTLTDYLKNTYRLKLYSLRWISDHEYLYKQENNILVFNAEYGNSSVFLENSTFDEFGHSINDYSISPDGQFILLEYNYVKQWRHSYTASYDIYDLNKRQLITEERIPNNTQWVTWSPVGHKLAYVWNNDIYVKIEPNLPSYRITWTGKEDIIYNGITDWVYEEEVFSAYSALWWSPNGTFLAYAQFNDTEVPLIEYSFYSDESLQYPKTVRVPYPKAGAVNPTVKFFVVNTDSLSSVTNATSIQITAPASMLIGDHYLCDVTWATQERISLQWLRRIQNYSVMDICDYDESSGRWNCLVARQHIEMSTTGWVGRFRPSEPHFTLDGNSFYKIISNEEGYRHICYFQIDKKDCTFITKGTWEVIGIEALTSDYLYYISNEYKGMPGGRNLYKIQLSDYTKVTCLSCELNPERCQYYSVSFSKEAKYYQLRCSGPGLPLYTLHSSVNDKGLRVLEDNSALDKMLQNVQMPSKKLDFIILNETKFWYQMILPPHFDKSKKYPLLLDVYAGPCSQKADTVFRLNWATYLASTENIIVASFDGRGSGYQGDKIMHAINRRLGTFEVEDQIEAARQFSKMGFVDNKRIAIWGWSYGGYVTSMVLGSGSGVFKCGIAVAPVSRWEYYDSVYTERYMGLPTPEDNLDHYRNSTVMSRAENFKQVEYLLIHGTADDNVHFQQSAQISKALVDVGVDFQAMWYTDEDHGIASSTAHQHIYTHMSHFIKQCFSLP

SMILES: N#C[C@@H]1CCCN1C(=O)CNC(=O)c1ccnc2ccc(OCCCN3CCN(C(=O)CN4CCN(CC(=O)O)CCN(CC(=O)O)CCN(CC(=O)O)CC4)CC3)cc12 [FAPI-02]
- binding to CD26 expressing cells (% ID): 0.13±0.01%
